Laboratory results from the supplement of paper PMC10920090.

Legend:
MDA-MB-231 [1] = assay: drug sensitivity score (DSS), cytotoxicity CellTox Green; higher = more cytotoxic; extreme values may be limits of the assay; conditions: 72 h
MDA-MB-231 [2] = assay: drug sensitivity score (DSS), cell viability CellTiter-Glo; higher = more sensitive; extreme values may be limits of the assay; conditions: 72 h
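Wherever drug sensitivity score (DSS), cytotoxicity CellTox Green is given: DSS summarises each dose–response curve by combining IC50, EC50, maximal inhibition and efficacy across drug concentrations.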

SMILES | drug sensitivity score (MDA-MB-231 [1]; shRNA: shPPFIA1_1) | drug sensitivity score (MDA-MB-231 [1]; shRNA: shScramble) | drug sensitivity score (MDA-MB-231 [2]; shRNA: shPPFIA1_1) | drug sensitivity score (MDA-MB-231 [2]; shRNA: shScramble)
CCC/C=C/C=C/C(=O)O[C@H]1/C(=C/C(=O)OC)C[C@H]2C[C@H]([C@@H](C)O)OC(=O)C[C@H](O)C[C@@H]3C[C@H](OC(C)=O)C(C)(C)[C@](O)(C[C@@H]4C/C(=C/C(=O)OC)C[C@H](/C=C/C(C)(C)[C@]1(O)O2)O4)O3 [Bryostatin 1] | 0 DSS | 0 DSS | 17.2 DSS | 3.3 DSS
Nc1cc(C(F)(F)F)c(-c2cc(N3CCOCC3)nc(N3CCOCC3)n2)cn1 [Buparlisib] | 1.4 DSS | 0 DSS | 0.9 DSS | 6.2 DSS
CS(=O)(=O)OCCCCOS(C)(=O)=O [Busulfan] | 0 DSS | 0 DSS | 0 DSS | 0.2 DSS
O=C(O)CCCCC(CCSCc1ccccc1)SCc1ccccc1 (centres undefined) [CPI-613] | 0 DSS | 0 DSS | 0 DSS | 0 DSS
C#Cc1cccc(Nc2ncnc3cc(OC)c(OCCCCCCC(=O)NO)cc23)c1 [CUDC-101] | 10.2 DSS | 7.4 DSS | 6.2 DSS | 9.8 DSS
CN(C)c1cc2c(cc1Sc1nc3c(N)nccc3n1CCNCC(C)(C)C)OCO2 [CUDC-305] | 3.4 DSS | 3.4 DSS | 8.7 DSS | 13.6 DSS
COc1ccc(-c2nc(N3CCOCC3)c3sc(CN(C)c4ncc(C(=O)NO)cn4)cc3n2)cn1 [CUDC-907] | 23.5 DSS | 24.5 DSS | 24 DSS | 28 DSS
Cc1nc(N)sc1-c1ccnc(Nc2ccc(N3CCOCC3)cc2)n1 [CYC-116] | 0 DSS | 0 DSS | 0.2 DSS | 4.8 DSS
CO[C@H]1C(=O)[C@]2(C)[C@@H](OC)C[C@H]3OC[C@@]3(OC(C)=O)[C@H]2[C@H](OC(=O)c2ccccc2)[C@]2(O)C[C@H](OC(=O)[C@H](O)[C@@H](NC(=O)OC(C)(C)C)c3ccccc3)C(C)=C1C2(C)C [Cabazitaxel] | 0 DSS | 9.7 DSS | 16.4 DSS | 11.5 DSS
COc1cc2nccc(Oc3ccc(NC(=O)C4(C(=O)Nc5ccc(F)cc5)CC4)cc3)c2cc1OC [Cabozantinib] | 0 DSS | 0 DSS | 3.2 DSS | 1.1 DSS
CC[C@@]1(O)C(=O)OCc2c1cc1n(c2=O)Cc2cc3ccccc3nc2-1 [Camptothecin] | 2 DSS | 0.7 DSS | 0.8 DSS | 10.4 DSS
C=CC(=O)Nc1cc2c(Nc3ccc(F)c(Cl)c3)ncnc2cc1OCCCN1CCOCC1 [Canertinib] | 3 DSS | 7.7 DSS | 2.8 DSS | 4.3 DSS
CCCCCOC(=O)Nc1nc(=O)n([C@@H]2O[C@H](C)[C@@H](O)[C@H]2O)cc1F [Capecitabine] | 0 DSS | 0 DSS | 0 DSS | 0 DSS
O=C(O)C1(C(=O)O)CCC1.[NH2-].[NH2-].[Pt+2] [Carboplatin] | 0 DSS | 0 DSS | 0 DSS | 0 DSS
CC(C)C[C@H](NC(=O)[C@H](CCc1ccccc1)NC(=O)CN1CCOCC1)C(=O)N[C@@H](Cc1ccccc1)C(=O)N[C@@H](CC(C)C)C(=O)[C@@]1(C)CO1 [Carfilzomib] | 21.9 DSS | 22.1 DSS | 16.5 DSS | 21.4 DSS
O=NN(CCCl)C(=O)NCCCl [Carmustine] | 0 DSS | 0 DSS | 0 DSS | 0 DSS
COc1cc2c(Oc3ccc4[nH]c(C)cc4c3F)ncnc2cc1OCCCN1CCCC1 [Cediranib] | 0 DSS | 0 DSS | 7 DSS | 7.5 DSS
Cc1ccc(-c2cc(C(F)(F)F)nn2-c2ccc(S(N)(=O)=O)cc2)cc1 [Celecoxib] | 0 DSS | 0 DSS | 0 DSS | 0 DSS
CCS(=O)(=O)N1CCN(c2ccc(Nc3ncc(C(N)=O)c(NC4CC4)n3)cc2)CC1 [Cerdulatinib] | 0 DSS | 0 DSS | 0 DSS | 2.9 DSS
Cc1cc(Nc2ncc(Cl)c(Nc3ccccc3S(=O)(=O)C(C)C)n2)c(OC(C)C)cc1C1CCNCC1 [Ceritinib] | 0.9 DSS | 0 DSS | 0 DSS | 1.2 DSS
O=C(O)CCCc1ccc(N(CCCl)CCCl)cc1 [Chlorambucil] | 0 DSS | 0 DSS | 0 DSS | 0 DSS

SMILES | drug sensitivity score (MDA-MB-231 [1]; shRNA: shPPFIA1_1) | drug sensitivity score (MDA-MB-231 [1]; shRNA: shScramble) | drug sensitivity score (MDA-MB-231 [2]; shRNA: shPPFIA1_1) | drug sensitivity score (MDA-MB-231 [2]; shRNA: shScramble)
CCN(CC)CCCC(C)Nc1ccnc2cc(Cl)ccc12 (centres undefined) [Chloroquine] | 5.2 DSS | 7.2 DSS | 8.7 DSS | 9.4 DSS
CC(C)[C@H]1C(=O)N[C@@H](CCCNC(=N)N)C(=O)NCC(=O)N[C@@H](CC(=O)O)C(=O)N[C@H](Cc2ccccc2)C(=O)N1C [Cilengitide] | 0 DSS | 0 DSS | 0 DSS | 0 DSS
N.N.[Cl][Pt][Cl] [Cisplatin] | 4 DSS | 3.5 DSS | 2 DSS | 7.6 DSS
Nc1nc(Cl)nc2c1ncn2[C@H]1C[C@H](O)[C@@H](CO)O1 [Cladribine] | 0 DSS | 0 DSS | 0 DSS | 3.3 DSS
Nc1nc(Cl)nc2c1ncn2[C@@H]1O[C@H](CO)[C@@H](O)[C@@H]1F [Clofarabine] | 0 DSS | 0 DSS | 0 DSS | 6.5 DSS
CCN(CC)CCOc1ccc(C(=C(Cl)c2ccccc2)c2ccccc2)cc1 [Clomifene] | 7.9 DSS | 6.1 DSS | 3.7 DSS | 5.1 DSS
O=C(c1ccc(F)c(F)c1Nc1ccc(I)cc1F)N1CC(O)([C@@H]2CCCCN2)C1 [Cobimetinib] | 4.4 DSS | 12 DSS | 1.6 DSS | 12.8 DSS
COc1c(OCCCN2CCOCC2)ccc2c1N=C(NC(=O)c1cnc(N)nc1)N1CCN=C21 [Copanlisib] | 10.2 DSS | 0 DSS | 0 DSS | 6.3 DSS
CC1(COc2ccc3c(c2)ncn3-c2ccc3cccc(N4CCC(N)CC4)c3n2)COC1 [Crenolanib] | 7.2 DSS | 4.6 DSS | 5.3 DSS | 9.4 DSS
C[C@@H](Oc1cc(-c2cnn(C3CCNCC3)c2)cnc1N)c1c(Cl)ccc(F)c1Cl [Crizotinib] | 0 DSS | 0 DSS | 0.1 DSS | 0 DSS
O=P1(N(CCCl)CCCl)NCCCO1 (centres undefined) [Cyclophosphamide] | 0 DSS | 0 DSS | 0 DSS | 0 DSS
Nc1ccn([C@@H]2O[C@H](CO)[C@@H](O)[C@@H]2O)c(=O)n1 [Cytarabine] | 0 DSS | 0 DSS | 0 DSS | 1.6 DSS
CC(C)(C)c1nc(-c2cccc(NS(=O)(=O)c3c(F)cccc3F)c2F)c(-c2ccnc(N)n2)s1 [Dabrafenib] | 0.9 DSS | 0.9 DSS | 0 DSS | 0 DSS
CN(C)/N=N/c1[nH]cnc1C(N)=O [Dacarbazine] | 0 DSS | 0 DSS | 0 DSS | 0 DSS
COc1cc2ncnc(Nc3ccc(F)c(Cl)c3)c2cc1NC(=O)/C=C/CN1CCCCC1 [Dacomitinib] | 0 DSS | 4.7 DSS | 0.9 DSS | 0 DSS
Cc1c2oc3c(C)ccc(C(=O)N[C@@H]4C(=O)N[C@H](C(C)C)C(=O)N5CCC[C@H]5C(=O)N(C)CC(=O)N(C)[C@@H](C(C)C)C(=O)O[C@@H]4C)c3nc-2c(C(=O)N[C@@H]2C(=O)N[C@H](C(C)C)C(=O)N3CCC[C@H]3C(=O)N(C)CC(=O)N(C)[C@@H](C(C)C)C(=O)O[C@@H]2C)c(N)c1=O [Dactinomycin] | 14.9 DSS | 12.4 DSS | 14.1 DSS | 25.9 DSS
CO[C@@H](C(=O)N1Cc2[nH]nc(NC(=O)c3ccc(N4CCN(C)CC4)cc3)c2C1)c1ccccc1 [Danusertib] | 0 DSS | 0.2 DSS | 0 DSS | 0 DSS
O=C(/C=C/c1cccnc1)NCCCCC1CCN(C(=O)c2ccccc2)CC1 [Daporinad] | 0 DSS | 0 DSS | 24.6 DSS | 26.8 DSS
CCN(CC)CCN(Cc1ccc(-c2ccc(C(F)(F)F)cc2)cc1)C(=O)Cn1c(SCc2ccc(F)cc2)nc(=O)c2c1CCC2 [Darapladib] | 13.1 DSS | 0 DSS | 0 DSS | 0 DSS
Cc1nc(Nc2ncc(C(=O)Nc3c(C)cccc3Cl)s2)cc(N2CCN(CCO)CC2)n1 [Dasatinib] | 0 DSS | 0 DSS | 0 DSS | 9.3 DSS
COc1cccc2c1C(=O)c1c(O)c3c(c(O)c1C2=O)C[C@@](O)(C(C)=O)C[C@@H]3O[C@H]1C[C@H](N)[C@H](O)[C@H](C)O1 [Daunorubicin] | 0 DSS | 0 DSS | 2.8 DSS | 7.5 DSS

SMILES | drug sensitivity score (MDA-MB-231 [1]; shRNA: shPPFIA1_1) | drug sensitivity score (MDA-MB-231 [1]; shRNA: shScramble) | drug sensitivity score (MDA-MB-231 [2]; shRNA: shPPFIA1_1) | drug sensitivity score (MDA-MB-231 [2]; shRNA: shScramble)
Nc1ncn([C@H]2C[C@H](O)[C@@H](CO)O2)c(=O)n1 [Decitabine] | 0 DSS | 0 DSS | 0.9 DSS | 1 DSS
CC(=O)N(O)CCCCCNC(=O)CCC(=O)N(O)CCCCCNC(=O)CCC(=O)N(O)CCCCCN [Deferoxamine] | 0 DSS | 0 DSS | 2.5 DSS | 2.7 DSS
C[C@@H]1C[C@H]2[C@@H]3CCC4=CC(=O)C=C[C@]4(C)[C@@]3(F)[C@@H](O)C[C@]2(C)[C@@]1(O)C(=O)CO [Dexamethasone] | 0 DSS | 0 DSS | 0 DSS | 0 DSS
CCc1cnn2c(NCc3ccc[n+]([O-])c3)cc(N3CCCC[C@H]3CCO)nc12 [Dinaciclib] | 15.4 DSS | 8.8 DSS | 13.8 DSS | 18.7 DSS
CCN(CC)C(=S)SSC(=S)N(CC)CC [Disulfiram] | 6.4 DSS | 7 DSS | 6.5 DSS | 14.3 DSS
Cc1ccc(-n2nc(C(C)(C)C)cc2NC(=O)Nc2ccc(OCCN3CCOCC3)c3ccccc23)cc1 [Doramapimod] | 0 DSS | 0 DSS | 0 DSS | 2.5 DSS
CN1CCN(c2ccc3nc(-c4c(N)c5c(F)cccc5[nH]c4=O)[nH]c3c2)CC1 [Dovitinib] | 0 DSS | 0 DSS | 0 DSS | 0 DSS
COc1cccc2c1C(=O)c1c(O)c3c(c(O)c1C2=O)C[C@@](O)(C(=O)CO)C[C@@H]3O[C@H]1C[C@H](N)[C@H](O)[C@H](C)O1 [Doxorubicin] | 0 DSS | 0 DSS | 1.4 DSS | 6.8 DSS
C[C@H](Nc1ncnc2nc[nH]c12)c1cc2cccc(Cl)c2c(=O)n1-c1ccccc1 [Duvelisib] | 0 DSS | 3.3 DSS | 3 DSS | 0 DSS
Cc1cc(Nc2cc(N3CCN(C)CC3)nc(/C=C/c3ccccc3)n2)n[nH]1 [ENMD-2076] | 2 DSS | 0.9 DSS | 3.8 DSS | 8.8 DSS
Cc1cc(C)c(CNC(=O)c2cc(-c3ccc(CN4CCOCC4)cc3)cc3c2cnn3C2CCCC2)c(=O)[nH]1 [EPZ-5687] | 0 DSS | 0 DSS | 3.5 DSS | 0 DSS
COC(=O)N[C@@H](C)CNc1nccc(-c2cn(C(C)C)nc2-c2cc(Cl)cc(NS(C)(=O)=O)c2F)n1 [Encorafenib] | 0 DSS | 0 DSS | 0 DSS | 1.3 DSS
Nc1ccccc1NC(=O)c1ccc(CNC(=O)OCc2cccnc2)cc1 [Entinostat] | 3.9 DSS | 0.2 DSS | 0.3 DSS | 4.5 DSS
c1cn2cc(-c3ccc4cn[nH]c4c3)nc(Nc3ccc(N4CCOCC4)cc3)c2n1 [Entospletinib] | 10.3 DSS | 0 DSS | 0.9 DSS | 0 DSS
CNC(=O)c1ccc(N2C(=S)N(c3ccc(C#N)c(C(F)(F)F)c3)C(=O)C2(C)C)cc1F [Enzalutamide] | 0 DSS | 0 DSS | 0 DSS | 0 DSS
Cn1cc(C2=C(c3cn(C4CCN(Cc5ccccn5)CC4)c4ccccc34)C(=O)NC2=O)c2ccccc21 [Enzastaurin] | 0 DSS | 0 DSS | 5.6 DSS | 2.8 DSS
NS(=O)(=O)NCCNc1nonc1/C(=N/O)Nc1ccc(F)c(Br)c1 [Epacadostat] | 0 DSS | 0 DSS | 0 DSS | 0 DSS
C[C@]12CC[C@@H]3c4ccc(OC(=O)N(CCCl)CCCl)cc4CC[C@H]3[C@@H]1CC[C@@H]2O [Estramustine] | 0 DSS | 0 DSS | 0 DSS | 0 DSS
COc1cc([C@@H]2c3cc4c(cc3[C@@H](O[C@@H]3O[C@@H]5CO[C@@H](C)O[C@H]5[C@H](O)[C@H]3O)[C@H]3COC(=O)[C@H]23)OCO4)cc(OC)c1O [Etoposide] | 1.6 DSS | 1.8 DSS | 0 DSS | 2 DSS
